Results from patent publication US10813891B2, “Method of inhibiting chronification of pain” (priority 2011, dated 2020).
Entries after “also recorded” stand apart in the source; their conditions may differ. Where two headings read alike, the source gives them in different places.

Legend:
CCI-ION rats [1] = conditions: cited from earlier work
CCI-SN rats [2] = assay type: in vivo, rat; conditions: rat, in vivo
Experimental: (§1) Male Sprague-Dawley rats (Charles River Laboratories, L'Arbresle, France), weighing 150-200 g on arrival, were used. Animals were maintained under controlled environmental conditions (22±1° C., 60% relative humidity, 12 h/12 h light/dark cycle, food and water ad libitum) starting from reception in the laboratory, for at least 1 week before any intervention or treatment and thereafter, until euthanasia.
Rats were anaesthetized as above and the common sciatic nerve was exposed. Using a dissection microscope (2× magnification), four chromic catgut (5-0) ligations were tied loosely with about 1 mm spacing, proximally to the sciatic trifurcation (Bennett and Xie, 1988). Finally, the skin and muscle were sewed using silk sutures (4-0). In sham-operated animals, the same surgery was performed, but the nerve was not ligated.
(§2) Tapentadol (1, 3 and 10 mg/kg i.p.), reboxetine (10 mg/kg i.p.), morphine (1 and 3 mg/kg s.c.) or their vehicle (0.9% NaCl) were injected acutely 14 days after surgery, when allodynia/hyperalgesia reached a plateau in both CCI-SN and CCI-ION rats. Behavioral tests were performed at various times for up to 4 h after injection. In drug association procedure, reboxetine or saline was administered 15 min before morphine or saline.
(§3) Subchronic treatment consisted of twice daily injections of tapentadol (10 mg/kg, i.p. at 10:00 am and 6:00 pm) or saline for 4 days starting on the 15th day after nerve ligation in both CCI-ION and CCI-SN rats. Animals were further injected with tapentadol (10 mg/kg i.p.) or saline at 10:00 am the following day (19th day post-surgery), and assessment of allodynia with von Frey filament tests (see below) was made at various times up to 4 hours after this injection. All rats were killed by decapitation 4 hours after the last injection for real-time qRT-PCR determinations of specific mRNAs in ganglia and central tissues (see below).
Before testing, each rat was habituated for 2 h as above, and mechanical sensitivity was then determined with a graded series of […] von Frey filaments, that produced a bending force of 6, 8, 10, 12, 15, 26, and 60 g, respectively. The stimuli were applied within the SN territory (lateral part of the hind paw sole). Each filament was tested three times on the nerve-injured side in increasing order starting with the filament producing the lowest force. As for the CCI-ION rats, the von Frey filaments were applied at least 3 seconds after the rat had returned to its initial resting state. The minimal force filament for which animals presented either a brisk paw withdrawal and/or an escape attempt in response to at least 2 out of the 3 stimulations allowed determination of the mechanical response threshold. The 60.00 g filament was chosen as the cutoff threshold to inhibit any tissue injury.
A—Two weeks after unilateral chronic constriction injury to the sciatic nerve, pressure threshold values (as g) to trigger nocifensive responses to von Frey filaments application onto the plantar surface of ipsilateral hindpaw were determined at various times after acute injection of tapentadol (1, 3 or 10 mg/kg, i.p.) or saline. B—On day 15 (D on abscissa) after nerve ligation, rats were treated subchronically with tapentadol (10 mg/kg, i.p., twice daily, at 10:00 AM and 6:00 PM) or saline for four days. On the following day (day 19 after surgery), both tapentadol- and saline-pretreated CCI-SN rats were injected with tapentadol (10 mg/kg, i.p.; 0 on abscissa) and then subjected to von Frey filaments' test applied to ipsilateral hindpaw for determination of pressure threshold values (as g) at various times thereafter.

CCI-ION rats [3] = assay type: in vivo, rat; conditions: rat, in vivo
Experimental: as §1
Rats were anaesthetized with sodium pentobarbital (50 mg/kg i.p.). Unilateral CCI-ION was performed under direct visual control using a Zeiss microscope (10-25×). Briefly, the head was fixed in a Horsley-Clarke stereotaxic frame and a midline scalp incision was made, exposing skull and nasal bone. The edge of the orbit, formed by the maxillary, frontal, lacrimal, and zygomatic bones, was dissected free. The orbital contents were then gently deflected to give access to the infraorbital nerve which was dissected free at its most rostral extent in the orbital cavity, just caudal to the infraorbital foramen. Only 5 mm of the nerve could be freed, providing the space for placement of two chromic catgut (5-0) ligations tied loosely (with about 2 mm spacing) around it. […] Finally, scalp incision was closed using silk sutures (4-0). In sham-operated rats, the ION was exposed using the same procedure, but was not ligated.
as §2, §3
Rats were placed individually in small (35×20×15 cm) plastic cages for a 2 h habituation period. Before any stimulation session, rats freely explored the observation cage and the testing environments for 2 h. Then mechanical sensitivity was determined with a graded series of […] von Frey filaments (Bioseb, Bordeaux, France). The filaments produced a bending force of 0.40, 0.60, 1.00, 2.00, 4.00, 6.00, 8.00, 10.00 and 12.00 g, respectively. The stimuli were applied within the ION territory (vibrissae pad) three times on the nerve-injured side and then on the contralateral side for a total of 6 applications of each filament per rat, always beginning with the filament producing the lowest force. The von Frey filaments were applied at least 3 seconds after the rat had returned to its initial resting state. For each session, the complete series of von Frey filaments was tested in increasing force order. […] The latter responses represented the highest scores in the rank-ordered response scoring system initially described by Vos et al. (1994). Under our own conditions, the mechanical response threshold was determined as the minimal force filament causing at least one among these responses to at least 2 out of the 3 applications in vibrissae territory. […] To avoid nonspecific responses, only these rats were included in the study.

CCI-SN rats [4] = conditions: rat, in vivo; cited from earlier work
[5] = system: mice hindpaw after incision; conditions: mouse, in vivo; cited from earlier work

NC1CCN(O)C1=O (single isomer, unassigned; (+)) [(+)-HA966]
cephalic neuropathic pain, each drug alone (CCI-ION rats [1]; each drug alone): inactive

CCOc1ccccc1OC(c1ccccc1)C1CNCCO1 (stereo not shown) [reboxetine]
pressure threshold values, either drug alone (CCI-SN rats [2]): only discrete increases in pressure threshold values | anti-allodynic effect alone (CCI-ION rats [3]): completely inactive on its own

NC1=N[C@H](O)[C@H]2[C@H]3O[C@]4(O)O[C@@H]([C@@H](O)[C@@]2(N1)[C@@H]4O)[C@]3(O)CO [tetrodotoxin]
allodynia/hyperalgesia in the hindpaw (CCI-SN rats [4]): reversed allodynia/hyperalgesia in the hindpaw | allodynia in the vibrissae territory (CCI-ION rats [1]; rat, in vivo): inactive against allodynia in the vibrissae territory

CN1CC[C@]23c4c5ccc(O)c4O[C@H]2[C@@H](O)C=C[C@H]3[C@H]1C5 [morphine]
effect on CCI-SN-induced mechanical allodynia (CCI-SN rats [2]): fully reversed CCI-SN-induced mechanical allodynia; also recorded: allodynia was not completely reversed | persistence of reversal of allodynia (CCI-SN rats [2]): at least one hour | pressure threshold values, either drug alone (CCI-SN rats [2]): only discrete increases in pressure threshold values | maximum increase in pressure threshold value, as % of that in healthy intact rats (CCI-ION rats [3]): 20% | incision-induced hyperalgesia [5]: does not inhibit incision-induced hyperalgesia; also recorded: hyperalgesia is even maintained | allodynia/hyperalgesia in the hindpaw (CCI-SN rats [4]): reversed allodynia/hyperalgesia in the hindpaw | allodynia in the vibrissae territory (CCI-ION rats [1]; rat, in vivo): inactive against allodynia in the vibrissae territory | cephalic neuropathic pain, each drug alone (CCI-ION rats [1]; rat, in vivo): inactive
